± gives the expanded uncertainty stated by the source.
Assay: molar heat capacity at constant pressure
Settings: 101.33 kPa, Liquid

SMILES | molar heat capacity at constant pressure (284.15 K) [J/K/mol] | molar heat capacity at constant pressure (286.65 K) [J/K/mol] | molar heat capacity at constant pressure (289.15 K) [J/K/mol] | molar heat capacity at constant pressure (291.65 K) [J/K/mol] | molar heat capacity at constant pressure (294.15 K) [J/K/mol] | molar heat capacity at constant pressure (296.65 K) [J/K/mol] | molar heat capacity at constant pressure (299.15 K) [J/K/mol] | molar heat capacity at constant pressure (301.65 K) [J/K/mol] | molar heat capacity at constant pressure (304.15 K) [J/K/mol] | molar heat capacity at constant pressure (306.65 K) [J/K/mol] | molar heat capacity at constant pressure (309.15 K) [J/K/mol] | molar heat capacity at constant pressure (311.65 K) [J/K/mol] | molar heat capacity at constant pressure (314.15 K) [J/K/mol] | molar heat capacity at constant pressure (316.65 K) [J/K/mol] | molar heat capacity at constant pressure (319.15 K) [J/K/mol] | molar heat capacity at constant pressure (321.65 K) [J/K/mol] | molar heat capacity at constant pressure (324.15 K) [J/K/mol] | molar heat capacity at constant pressure (326.65 K) [J/K/mol] | molar heat capacity at constant pressure (329.15 K) [J/K/mol] | molar heat capacity at constant pressure (331.65 K) [J/K/mol] | other results
CCCCCCCCCl [1-chlorooctane] | 269.76 ± 1.4 | 270.79 ± 1.4 | 271.83 ± 1.4 | 272.66 ± 1.4 | 273.66 ± 1.4 | 274.53 ± 1.4 | 275.61 ± 1.4 | 276.52 ± 1.4 | 277.29 ± 1.4 | 278.37 ± 1.4 | 279.28 ± 1.4 | 280.5 ± 1.4 | 281.58 ± 1.4 | 282.47 ± 1.4 | 283.79 ± 1.4 | 284.92 ± 1.4 | 285.45 ± 1.4 | 286.81 ± 1.4 | 288.43 ± 1.4 | 289.95 ± 1.4 | molar heat capacity at constant pressure (334.15 K): 290.13 ± 1.4 J/K/mol; molar heat capacity at constant pressure (336.65 K): 291.34 ± 1.5 J/K/mol; molar heat capacity at constant pressure (339.15 K): 291.91 ± 1.5 J/K/mol; molar heat capacity at constant pressure (341.65 K): 293.56 ± 1.5 J/K/mol; molar heat capacity at constant pressure (344.15 K): 294.16 ± 1.5 J/K/mol; molar heat capacity at constant pressure (346.65 K): 294.82 ± 1.5 J/K/mol; molar heat capacity at constant pressure (349.15 K): 295.79 ± 1.5 J/K/mol; molar heat capacity at constant pressure (351.65 K): 297.21 ± 1.5 J/K/mol; molar heat capacity at constant pressure (353.15 K): 298.14 ± 1.5 J/K/mol
CCCCCCl [1-chloropentane] | 184.57 ± 0.92 | 185.29 ± 0.93 | 185.95 ± 0.93 | 186.52 ± 0.93 | 187.16 ± 0.94 | 187.66 ± 0.94 | 188.46 ± 0.94 | 189.19 ± 0.95 | 189.81 ± 0.95 | 190.32 ± 0.95 | 190.99 ± 0.95 | 191.89 ± 0.96 | 192.65 ± 0.96 | 193.22 ± 0.97 | 194.09 ± 0.97 | 194.69 ± 0.97 | 195.06 ± 0.98 | 196.14 ± 0.98 | 196.99 ± 0.98 | 197.64 ± 0.99 | molar heat capacity at constant pressure (334.15 K): 198.46 ± 0.99 J/K/mol; molar heat capacity at constant pressure (336.65 K): 199.23 ± 1 J/K/mol; molar heat capacity at constant pressure (339.15 K): 199.92 ± 1 J/K/mol; molar heat capacity at constant pressure (341.65 K): 200.41 ± 1 J/K/mol; molar heat capacity at constant pressure (344.15 K): 201.19 ± 1 J/K/mol; molar heat capacity at constant pressure (346.65 K): 201.73 ± 1 J/K/mol; molar heat capacity at constant pressure (349.15 K): 202.54 ± 1 J/K/mol; molar heat capacity at constant pressure (351.65 K): 203.57 ± 1 J/K/mol; molar heat capacity at constant pressure (353.15 K): 204.24 ± 1 J/K/mol
CCCCl [1-chloropropane] | 128.63 ± 0.64 | 128.99 ± 0.64 | 129.53 ± 0.65 | 130.1 ± 0.65 | 130.47 ± 0.65 | 130.95 ± 0.65 | 131.33 ± 0.66 | 131.88 ± 0.66 | 132.37 ± 0.66 | 132.94 ± 0.66 | 133.4 ± 0.67 | 133.92 ± 0.67 | 134.38 ± 0.67 |  |  |  |  |  |  |  | 
CCBr [bromoethane] | 105.63 ± 0.53 | 105.91 ± 0.53 | 106.14 ± 0.53 | 106.42 ± 0.53 | 106.75 ± 0.53 | 107.09 ± 0.54 | 107.42 ± 0.54 |  |  |  |  |  |  |  |  |  |  |  |  |  | molar heat capacity at constant pressure (269.15 K): 104.07 ± 0.52 J/K/mol; molar heat capacity at constant pressure (271.65 K): 104.37 ± 0.52 J/K/mol; molar heat capacity at constant pressure (274.15 K): 104.6 ± 0.52 J/K/mol; molar heat capacity at constant pressure (276.65 K): 104.85 ± 0.52 J/K/mol; molar heat capacity at constant pressure (279.15 K): 105.14 ± 0.53 J/K/mol; molar heat capacity at constant pressure (281.65 K): 105.42 ± 0.53 J/K/mol
